Experimental data published in patent US5734015A, “Family of linear antimicrobial peptides from hagfish intestine” (Magainin Pharmaceuticals Inc., priority 1996, dated 1998).
No end group written: not given here.

What was measured:
Experiment in all cases: Antibiotic activity, MIC by standard methodology
Format in all cases: cell-based
P. aeruginosa = test system: P. aeruginosa
Excerpt: (§1) Chemical synthesis of the sequence (SEQ ID NO. 4) corresponding to Peptides 1 and 2 (SEQ ID NOS: 1 and 2 respectively) containing native (unmodified) tryptophan was achieved by SPPS, using Fmoc chemistry.

S. aureus = test system: S. aureus
Excerpt: as §1

E. coli = test system: E. coli
Excerpt: as §1

C. albicans = test system: C. albicans
Excerpt: as §1

With “GFFKKAWRKVKHAGRRVLDTAKGVGRHYVNNWLNRYR [SEQ ID NO. 4]” the “minimum inhibitory concentration (MIC)” value (P. aeruginosa) was 8 µg/mL, the “minimum inhibitory concentration (MIC)” value (S. aureus) was 8 µg/mL and the “minimum inhibitory concentration (MIC)” value (E. coli) was 8 µg/mL. For the same sequence, the “minimum inhibitory concentration (MIC)” value (C. albicans) was greater than 256 µg/mL.
